Source: US5878747A, “Condom coated with acidic polysaccharides” (Fuji Latex Co., Ltd., priority 1993, dated 1999)

The substances below were run on AMV (avian myeloblastosis virus) reverse transcriptase (assay: AMV reverse transcriptase inhibition ([3H]dTTP incorporation)). Conditions: 1 Inhibition unit = activity which inhibits 1 unit of reverse transcriptase activity to 50%.
Format: biochemical
Method: 1 unit of AMV (avian myeloblastosis virus) reverse transcriptase was mixed with 50 μl of a mixture (50 mM tris hydrochloride, pH 8.4, 2 mM dithiothreitol, 100 mM KCl, 10 mM MgCl2, 0.1% triton X-100, 50 μg poly (rA)-oligo (dT)/ml, 1.25 μCi [^3 H] dTTP (57 Ci/mmol)) and with various concentration of various sulfated polysaccharides.
The reaction mixtures were incubated and stopped by the addition of 5% trichloroacetic acid. Precipitates were collected on glass fiber filters and their radio activities were determined by a liquid scintilation counter.
1 Inhibition unit is defined as an activity which inhibits 1 unit of reverse transcriptase activity to 50%.

Substance | Inhibition Unit/mg [Inhibition Unit/mg]
Chondroitin sulfate | 30
Dermatan sulfate | 210
Heparan sulfate | 50
Heparin | 830
Karatan sulfate | 30
l-Carrageenan | 35810
κ-Carrageenan | 30200
λ-Carrageenan | 68320
